The values below come from patent US9296831B2, “Herbal extract composition for the treatment of diabetes and a method of extracting the same” (priority 2014, dated 2016).

Data set [1] relates to rats. The experiment in a line: Sub acute toxicity test, biochemistry, 15 days. Type of data set: in vivo. The method, then: (§1) According to one embodiment herein, the acute, sub acute and sub chronic toxicological tests are performed based on the standard protocols. For the acute sequential design procedure of LD-50, limit dose test were done and mortality rate is recorded up to 14 days. […] For the animals in the control groups, distilled water is administered by the same protocols. At the end of the time period, the rats are killed and the body specimens are collected for the determination of biochemical, hematological and pathological parameters.

Data set [2] concerns rats. Conditions: rat, in vivo. The procedure: According to one embodiment herein, the acute, sub acute and sub chronic toxicological tests are performed based on the standard protocols. For the acute sequential design procedure of LD-50, limit dose test were done and mortality rate is recorded up to 14 days. Sub acute and sub chronic toxicological tests are performed by an administration of 160 mg/kg (10 folds of therapeutics dose) for 21 and 52 days respectively. For the animals in the control groups, distilled water is administered by the same protocols. At the end of the time period, the rats are killed and the body specimens are collected for the determination of biochemical, hematological and pathological parameters.

Another data set has as its system Wistar rats. The experiment in a line: Post prandial blood sugar (BS) levels in STZ-induced diabetic rats. Type of data set: in vivo, rat. The note with it: oligosaccharide 16 mg/kg, metformin 15 mg/kg/day. The method, then: According to one embodiment herein, the oligosaccharide is administered to rats after purification and structural analysis of the oligosaccharide. The eight week old Wistar rats, weighing from 200-250 gm are purchased from Pasteur institute (Tehran, Iran). The animals are kept on a standard diet with free access to water and food throughout the study. All treatments and maintenance of the animals are carried out in accordance with the principles of laboratory animal care. Further diabetes is induced in the animals except the controls by a single intraperitoneal injection of STZ (60 mg/kg) freshly dissolved in citrate buffer of 5 mmol/L and a pH of 4.5. After an elapse of 48 hrs since the injection of streptozocin (STZ), the diabetes is confirmed by measuring the glucose levels in the blood samples. The blood samples are obtained from the retro-orbital sinus of the animals under diethyl ether-induced light anesthesia with GlucoDr Glucometer (Allmedicus; Germany). […] The first group comprises ten rats and is administered with the oligosaccharide. The second group comprises eight rats and the rats in the second group are injected with the citrate buffer. This group is called a negative control group. The amount of citrate buffer administered to the second group and the amount of oligosaccharide administered to the first group are same or equal. The rats in the oligosaccharide treated groups are given different doses (8-40 mg/kg) of the pure materials dissolved in distilled water twice daily for 21 days starting from the third day since the STZ injection. […] The molecules of glybenclamide or metformin are administered intraperitoneally or by oral gavage and stopped after three weeks. The water intake and urine volume are measured throughout the study. Twenty four hours after the administration of the last dose of oligosaccharide, the blood glucose is monitored in fasting and non-fasting states. The body and pancreas weights are compared. Oral glucose tolerance test, insulin tolerance test, gluconeogenesis inhibition test and alfa glucosidase inhibition tests are conducted. […] The untreated negative controls received no molecule, while the test group received oligosaccharide and the positive control received either metformin or glybenclamide. FIG. 2 illustrates a flow chart indicating the administration and testing of the anti-diabetic effect of oligosaccharide molecule, according to an embodiment herein. The process of administering and testing the antidiabetic effect of oligosaccharide molecule comprises purchasing eight week old male Wistar rats weighing 200-250 gm (201). The rats are purchased from Pasteus Institute (Tehran, Iran). The rats are kept on a standard diet with free access to water and food throughout the study. All the treatments and maintenance of the animals is carried out in accordance with the principles of laboratory animal care. Inducing diabetes by stretozotocin (STZ) 60 mg/kg injection (202). The diabetes is induced in all rats except in the rats in the control group by intraperitoneal injection of STZ freshly dissolved in 5 mmol/L citrate buffer (pH 4.5). The diabetes is confirmed 48 hrs after STZ infection by measuring blood glucose levels (203). The blood from rats is obtained from retro-orbital sinus of the animals under diethyl ether induced light anesthesia with GlucoDr Glucometer (Allmedicus; Germany). […] The rats in positive control, negative control and oligosaccharide treated group are divided into different groups (204). The rats in the negative control group are injected with citrate buffer for three weeks (205). The rats in the positive control group are injected with glybendamide and metformin for three weeks (206). The rats in the oligosaccharide group are injected with different concentration (8-40 mg/kg) of oligosaccharide for three weeks (207). The oligosaccharide is dissolved in distilled water and administered twice daily after STZ injection induced diabetes. […]

Data set [3] deals with rats. As to the kind of experiment: Sub acute toxicity test, hematology, 15 days. Type of data set: in vivo. The method, then:
as §1

Setting [4] is: 21 days after treatment, glybenclamide 5 mg/kg/day.
The mark [5] stands for this setting: 30 days after withdrawal of the treatment, glybenclamide 5 mg/kg/day.
Setting [6] is: before treatment (baseline), glybenclamide 5 mg/kg/day groups.

Consider `COC(=O)C1OC(O)C(O)C(O)C1OC1OC(C(=O)OC)C(OC2OC(C(=O)OC)C(OC3OC(C(=O)O)C(O)C(O)C3O)C(O)C2OC(C)=O)C(O)C1O` (centres unmarked) [Oligosaccharide], for which, in the data set on rats [1] (16 mg/kg), the ALP is on record as 442.69 ± 90.54 u/l, the ALT was determined as 146.33 ± 18.41 u/l, the AST is recorded as 169.41 ± 17.5 u/l and the Alb was determined as 3.22 ± 0.04 g/dL. In the data set on rats [1] (16 mg/kg), this compound had a CPK of 1341.5 ± 311.12 u/l, a Chol of 82.15 ± 22.11 mg/dL, a Cr of 0.66 ± 0.02 mg/dL and a Glucose of 113.61 ± 16.4 mg/dL. Further, in the data set with rats [1] (16 mg/kg), the LDH was found to be 2019.7 ± 390.4 u/l, the TG is 98.41 ± 15.63 mg/dL, the Urea is 54.71 ± 9.98 mg/dL and the Uric acid is 1.62 ± 0.32 mg/dL. In the data set with rats [1] (160 mg/kg), this compound yielded an ALP of 351.37 ± 63.21 u/l, an ALT of 142.31 ± 21.32 u/l, an AST of 177.51 ± 24.2 u/l and an Alb of 3.24 ± 0.05 g/dL. Besides, in the data set on rats [1] (160 mg/kg), the CPK is reported as 1398.3 ± 115.5 u/l, the Chol was found to be 81.11 ± 14.31 mg/dL, the Cr was 0.65 ± 0.04 mg/dL and the Glucose was found to be 109.3 ± 10.4 mg/dL. In the data set on rats [1] (160 mg/kg), this compound yielded an LDH of 2110.5 ± 504.7 u/l, a TG of 97.99 ± 17.49 mg/dL, a Urea of 54.87 ± 6.63 mg/dL and a Uric acid of 1.58 ± 0.25 mg/dL. For the same compound, the “abnormality in pathologic studies” value in the data set on rats [2] is “no abnormality is observed”. In addition, the “BS levels mg/dl (SD), post prandial” value with Wistar rats (setting [4]) is listed as 150(21) mg/dl. For the same compound, the “BS levels mg/dl (SD), post prandial” value with Wistar rats (setting [5]) is 144(18) mg/dl. Besides, the “BS levels mg/dl (SD), post prandial” value in the data set on Wistar rats (setting [6]) is listed as 364(41) mg/dl. In the data set with rats [3] (16 mg/kg), this compound yielded an HCT of 42.8 ± 2.9%, a Hb of 14.3 ± 0.6 g/dL, an MCH of 18.1 ± 4.9 pg and an MCHC of 33.8 ± 4.7 g/dL. For the same compound, in the data set on rats [3] (16 mg/kg), the MCV worked out at 54.51 ± 3.2 fL, the PLT was 9.4 ± 1.3 ×105/ml, the RBC is listed as 8.08 ± 1.3 ×106/ml and the WBC is 10.5 ± 3.3 ×103/ml. For the same compound, in the data set with rats [3] (160 mg/kg), the HCT amounted to 42.6 ± 1.1%, the Hb is 14.1 ± 0.3 g/dL, the MCH was found to be 18.3 ± 3.9 pg and the MCHC came to 33.9 ± 5.1 g/dL. In the data set on rats [3] (160 mg/kg), the MCV stood at 55.9 ± 2.5 fL, the PLT is on record as 9.3 ± 2.1 ×105/ml, the RBC is recorded as 7.98 ± 1.9 ×106/ml and the WBC is 8.9 ± 2.9 ×103/ml.
For `CN(C)C(=N)N=C(N)N` [Metformin, metformin], the “BS levels mg/dl (SD), post prandial” value in the data set on Wistar rats (setting [4]) is 261(49) mg/dl; in the data set with Wistar rats (setting [5]) it was 375(59) mg/dl; with Wistar rats (setting [6]) it was 375(57)(20) mg/dl.
Taken in the same sequence, the figures for `COc1ccc(Cl)cc1C(=O)NCCc1ccc(S(=O)(=O)NC(=O)NC2CCCCC2)cc1` [Glybenclamide, glybenclamide] were 250(63) mg/dl, 363(64) mg/dl and 360(41) mg/dl.
